Test results reported in the supplement of paper PMC6315032.

How the values were obtained:
Experiment in all cases: apparent dissociation constant (pKDapp, Kinobeads competition, Cheng-Prusoff corrected) (-log10 M); higher = tighter binding
[1] = molecular target: TAOK2 (UniProt Q9UL54); details: affinity matrix / lysate: Kinobeads, mixed HEK293/K-562/placenta lysate
[2] = molecular target: EPHB4 (UniProt P54760); details: affinity matrix / lysate: Kinobeads, mixed HEK293/K-562/placenta lysate
[3] = molecular target: PRKCQ (UniProt Q04759); details: affinity matrix / lysate: Kinobeads, mixed HEK293/K-562/placenta lysate
[4] = molecular target: PDIK1L (UniProt Q8N165); details: affinity matrix / lysate: Kinobeads, mixed HEK293/K-562/placenta lysate
[5] = molecular target: MAP4K5 (UniProt Q9Y4K4); details: affinity matrix / lysate: Kinobeads, mixed HEK293/K-562/placenta lysate
[6] = molecular target: PKN1 (UniProt Q16512); details: affinity matrix / lysate: Kinobeads, mixed HEK293/K-562/placenta lysate
[7] = molecular target: ACVR1 (UniProt Q04771); details: affinity matrix / lysate: Kinobeads, mixed HEK293/K-562/placenta lysate
[8] = molecular target: ACVR1B (UniProt P36896); details: affinity matrix / lysate: Kinobeads, mixed HEK293/K-562/placenta lysate
[9] = molecular target: IRAK3 (UniProt Q9Y616); details: affinity matrix / lysate: Kinobeads, mixed HEK293/K-562/placenta lysate
[10] = molecular target: TNIK (UniProt Q9UKE5); details: affinity matrix / lysate: Kinobeads, mixed HEK293/K-562/placenta lysate
[11] = molecular target: CSK (UniProt P41240); details: affinity matrix / lysate: Kinobeads, mixed HEK293/K-562/placenta lysate
[12] = molecular target: ITK (UniProt Q08881); details: affinity matrix / lysate: Kinobeads, mixed HEK293/K-562/placenta lysate
[13] = molecular target: ULK3 (UniProt Q6PHR2); details: affinity matrix / lysate: Kinobeads, mixed HEK293/K-562/placenta lysate
[14] = molecular target: SRC (UniProt P12931); details: affinity matrix / lysate: Kinobeads, mixed HEK293/K-562/placenta lysate
[15] = molecular target: CDK2 (UniProt P24941); details: affinity matrix / lysate: Kinobeads, mixed HEK293/K-562/placenta lysate
[16] = molecular target: PIK3CA (UniProt P42336); details: affinity matrix / lysate: Lipid Kinobeads, mixed HeLa/Jurkat/K-562 lysate
PIK3CA, sequence (P42336 whole entry): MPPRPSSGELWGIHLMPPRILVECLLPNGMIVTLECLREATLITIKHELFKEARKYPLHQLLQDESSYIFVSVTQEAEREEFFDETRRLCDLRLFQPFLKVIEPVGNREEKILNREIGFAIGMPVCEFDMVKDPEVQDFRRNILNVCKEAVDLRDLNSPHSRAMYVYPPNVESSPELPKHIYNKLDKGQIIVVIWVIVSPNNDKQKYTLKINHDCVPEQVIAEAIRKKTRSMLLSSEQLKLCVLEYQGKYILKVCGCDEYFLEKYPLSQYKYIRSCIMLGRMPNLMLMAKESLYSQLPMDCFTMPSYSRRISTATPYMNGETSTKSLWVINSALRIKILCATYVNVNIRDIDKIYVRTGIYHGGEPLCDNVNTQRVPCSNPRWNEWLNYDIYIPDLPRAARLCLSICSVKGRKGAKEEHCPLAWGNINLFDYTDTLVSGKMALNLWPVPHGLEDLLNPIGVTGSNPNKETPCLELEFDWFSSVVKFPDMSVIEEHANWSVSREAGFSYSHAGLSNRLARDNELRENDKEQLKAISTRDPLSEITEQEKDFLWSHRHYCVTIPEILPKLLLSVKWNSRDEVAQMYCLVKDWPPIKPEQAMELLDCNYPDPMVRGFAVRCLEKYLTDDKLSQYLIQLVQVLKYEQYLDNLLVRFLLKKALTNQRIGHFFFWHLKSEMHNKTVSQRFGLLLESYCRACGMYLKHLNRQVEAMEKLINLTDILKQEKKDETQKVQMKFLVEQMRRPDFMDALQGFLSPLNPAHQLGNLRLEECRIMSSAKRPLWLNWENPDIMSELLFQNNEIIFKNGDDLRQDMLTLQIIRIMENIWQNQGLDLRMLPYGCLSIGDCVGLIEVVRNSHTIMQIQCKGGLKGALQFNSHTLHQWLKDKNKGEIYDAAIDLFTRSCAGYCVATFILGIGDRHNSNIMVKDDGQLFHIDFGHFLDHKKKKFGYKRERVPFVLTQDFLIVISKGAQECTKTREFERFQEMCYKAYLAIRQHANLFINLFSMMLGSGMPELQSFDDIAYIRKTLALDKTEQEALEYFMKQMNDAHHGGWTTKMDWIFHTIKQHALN

[17] = molecular target: CSNK2A1 (UniProt P68400)
CSNK2A1, sequence (P68400 whole entry, looked up): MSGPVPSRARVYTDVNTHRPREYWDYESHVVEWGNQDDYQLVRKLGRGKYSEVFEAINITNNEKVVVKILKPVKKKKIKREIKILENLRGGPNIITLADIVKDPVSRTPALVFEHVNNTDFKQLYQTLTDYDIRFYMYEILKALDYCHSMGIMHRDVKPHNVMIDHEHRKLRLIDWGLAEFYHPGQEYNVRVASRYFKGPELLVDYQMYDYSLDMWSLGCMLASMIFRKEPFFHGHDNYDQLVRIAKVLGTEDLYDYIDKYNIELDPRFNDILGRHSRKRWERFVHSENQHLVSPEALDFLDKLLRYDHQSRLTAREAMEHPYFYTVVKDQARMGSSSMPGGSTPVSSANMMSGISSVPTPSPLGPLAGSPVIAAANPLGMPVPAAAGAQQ

[18] = molecular target: CSNK1D (UniProt P48730); details: affinity matrix / lysate: Kinobeads, mixed HEK293/K-562/placenta lysate
[19] = molecular target: EPHA5 (UniProt P54756); details: affinity matrix / lysate: Kinobeads, mixed HEK293/K-562/placenta lysate
[20] = molecular target: ADCK1 (UniProt Q86TW2); details: affinity matrix / lysate: Kinobeads, mixed HEK293/K-562/placenta lysate
[21] = molecular target: KDR (UniProt P35968); details: affinity matrix / lysate: Kinobeads, mixed HEK293/K-562/placenta lysate
[22] = molecular target: ILK (UniProt Q13418); details: affinity matrix / lysate: Kinobeads, mixed HEK293/K-562/placenta lysate
ILK, sequence (Q13418 whole entry): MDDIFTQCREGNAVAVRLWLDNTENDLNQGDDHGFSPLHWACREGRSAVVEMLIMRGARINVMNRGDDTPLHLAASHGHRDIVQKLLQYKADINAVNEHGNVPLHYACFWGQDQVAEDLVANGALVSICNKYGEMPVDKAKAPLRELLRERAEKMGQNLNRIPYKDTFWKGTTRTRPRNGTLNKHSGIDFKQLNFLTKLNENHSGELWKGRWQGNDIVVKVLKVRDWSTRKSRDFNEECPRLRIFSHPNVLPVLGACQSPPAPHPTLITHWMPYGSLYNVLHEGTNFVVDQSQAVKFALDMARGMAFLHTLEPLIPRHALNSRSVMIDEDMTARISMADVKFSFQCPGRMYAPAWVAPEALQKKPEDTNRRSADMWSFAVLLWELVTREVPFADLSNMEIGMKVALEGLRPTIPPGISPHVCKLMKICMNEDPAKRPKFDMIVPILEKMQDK

[23] = molecular target: PKMYT1 (UniProt Q99640); details: affinity matrix / lysate: Kinobeads, mixed HEK293/K-562/placenta lysate
[24] = molecular target: PAK4 (UniProt O96013); details: affinity matrix / lysate: Kinobeads, mixed HEK293/K-562/placenta lysate
[25] = molecular target: PLK4 (UniProt O00444); details: affinity matrix / lysate: Kinobeads, mixed HEK293/K-562/placenta lysate
PLK4, sequence (O00444 whole entry): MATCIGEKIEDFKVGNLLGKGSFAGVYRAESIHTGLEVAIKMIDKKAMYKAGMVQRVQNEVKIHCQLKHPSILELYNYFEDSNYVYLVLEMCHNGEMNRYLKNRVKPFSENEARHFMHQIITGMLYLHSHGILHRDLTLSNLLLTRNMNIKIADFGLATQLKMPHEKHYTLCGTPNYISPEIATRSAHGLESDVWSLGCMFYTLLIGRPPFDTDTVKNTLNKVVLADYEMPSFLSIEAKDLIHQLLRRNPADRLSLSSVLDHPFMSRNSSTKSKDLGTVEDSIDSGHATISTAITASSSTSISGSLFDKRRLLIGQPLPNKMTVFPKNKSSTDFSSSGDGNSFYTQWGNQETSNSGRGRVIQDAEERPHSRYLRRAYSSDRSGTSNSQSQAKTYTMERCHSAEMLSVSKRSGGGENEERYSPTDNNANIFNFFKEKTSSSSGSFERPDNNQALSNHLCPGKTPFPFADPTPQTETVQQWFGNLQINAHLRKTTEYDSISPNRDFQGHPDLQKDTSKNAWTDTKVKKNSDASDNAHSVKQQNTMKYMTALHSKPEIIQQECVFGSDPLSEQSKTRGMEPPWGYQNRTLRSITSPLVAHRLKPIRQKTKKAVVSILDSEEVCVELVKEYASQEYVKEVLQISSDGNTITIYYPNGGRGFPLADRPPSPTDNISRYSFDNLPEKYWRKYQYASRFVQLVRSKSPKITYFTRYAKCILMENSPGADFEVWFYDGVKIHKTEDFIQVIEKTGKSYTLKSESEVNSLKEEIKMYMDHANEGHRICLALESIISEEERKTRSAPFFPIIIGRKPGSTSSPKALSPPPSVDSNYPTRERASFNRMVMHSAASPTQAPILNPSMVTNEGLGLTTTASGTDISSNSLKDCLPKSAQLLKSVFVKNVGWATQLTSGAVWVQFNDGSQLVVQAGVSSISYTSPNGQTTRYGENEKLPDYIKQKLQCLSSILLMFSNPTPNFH

[26] = molecular target: IGF1R (UniProt P08069); details: affinity matrix / lysate: Kinobeads, mixed HEK293/K-562/placenta lysate
[27] = molecular target: STK11 (UniProt Q15831); details: affinity matrix / lysate: Kinobeads, mixed HEK293/K-562/placenta lysate
[28] = molecular target: CDC42BPA (UniProt Q5VT25); details: affinity matrix / lysate: Kinobeads, mixed HEK293/K-562/placenta lysate
[29] = molecular target: MAP3K5 (UniProt Q99683); details: affinity matrix / lysate: Kinobeads, mixed HEK293/K-562/placenta lysate
[30] = molecular target: AURKB (UniProt Q96GD4); details: affinity matrix / lysate: Kinobeads, mixed HEK293/K-562/placenta lysate
[31] = molecular target: MAPK6 (UniProt Q16659); details: affinity matrix / lysate: Kinobeads, mixed HEK293/K-562/placenta lysate
[32] = molecular target: TYRO3 (UniProt Q06418); details: affinity matrix / lysate: Kinobeads, mixed HEK293/K-562/placenta lysate
TYRO3, sequence (Q06418 whole entry): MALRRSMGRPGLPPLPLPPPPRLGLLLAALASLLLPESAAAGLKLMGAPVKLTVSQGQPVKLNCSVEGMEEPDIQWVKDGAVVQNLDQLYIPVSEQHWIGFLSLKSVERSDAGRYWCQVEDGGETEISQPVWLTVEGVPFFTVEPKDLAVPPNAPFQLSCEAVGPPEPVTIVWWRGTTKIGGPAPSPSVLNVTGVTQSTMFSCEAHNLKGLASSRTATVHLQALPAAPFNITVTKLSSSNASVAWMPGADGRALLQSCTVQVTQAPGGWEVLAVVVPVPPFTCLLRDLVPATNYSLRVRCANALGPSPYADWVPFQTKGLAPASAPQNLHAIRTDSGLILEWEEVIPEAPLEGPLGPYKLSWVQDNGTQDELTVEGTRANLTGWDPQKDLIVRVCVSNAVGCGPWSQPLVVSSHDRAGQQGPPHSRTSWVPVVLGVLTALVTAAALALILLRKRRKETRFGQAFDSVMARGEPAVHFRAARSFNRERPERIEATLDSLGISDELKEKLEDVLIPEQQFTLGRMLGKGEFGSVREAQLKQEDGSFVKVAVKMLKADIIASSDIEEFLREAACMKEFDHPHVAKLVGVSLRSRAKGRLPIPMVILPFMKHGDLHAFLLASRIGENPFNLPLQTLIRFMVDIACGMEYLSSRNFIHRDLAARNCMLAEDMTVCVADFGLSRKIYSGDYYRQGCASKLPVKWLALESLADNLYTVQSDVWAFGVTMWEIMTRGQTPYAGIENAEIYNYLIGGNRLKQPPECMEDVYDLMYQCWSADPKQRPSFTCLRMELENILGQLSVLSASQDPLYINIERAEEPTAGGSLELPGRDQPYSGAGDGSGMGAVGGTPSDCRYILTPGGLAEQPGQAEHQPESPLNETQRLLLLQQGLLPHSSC

[33] = molecular target: MYLK3 (UniProt Q32MK0); details: affinity matrix / lysate: Kinobeads, mixed HEK293/K-562/placenta lysate
[34] = affinity matrix / lysate: Kinobeads, mixed HEK293/K-562/placenta lysate
[35] = affinity matrix / lysate: Lipid Kinobeads, mixed HeLa/Jurkat/K-562 lysate

TAOK2, sequence (Q9UL54 whole entry): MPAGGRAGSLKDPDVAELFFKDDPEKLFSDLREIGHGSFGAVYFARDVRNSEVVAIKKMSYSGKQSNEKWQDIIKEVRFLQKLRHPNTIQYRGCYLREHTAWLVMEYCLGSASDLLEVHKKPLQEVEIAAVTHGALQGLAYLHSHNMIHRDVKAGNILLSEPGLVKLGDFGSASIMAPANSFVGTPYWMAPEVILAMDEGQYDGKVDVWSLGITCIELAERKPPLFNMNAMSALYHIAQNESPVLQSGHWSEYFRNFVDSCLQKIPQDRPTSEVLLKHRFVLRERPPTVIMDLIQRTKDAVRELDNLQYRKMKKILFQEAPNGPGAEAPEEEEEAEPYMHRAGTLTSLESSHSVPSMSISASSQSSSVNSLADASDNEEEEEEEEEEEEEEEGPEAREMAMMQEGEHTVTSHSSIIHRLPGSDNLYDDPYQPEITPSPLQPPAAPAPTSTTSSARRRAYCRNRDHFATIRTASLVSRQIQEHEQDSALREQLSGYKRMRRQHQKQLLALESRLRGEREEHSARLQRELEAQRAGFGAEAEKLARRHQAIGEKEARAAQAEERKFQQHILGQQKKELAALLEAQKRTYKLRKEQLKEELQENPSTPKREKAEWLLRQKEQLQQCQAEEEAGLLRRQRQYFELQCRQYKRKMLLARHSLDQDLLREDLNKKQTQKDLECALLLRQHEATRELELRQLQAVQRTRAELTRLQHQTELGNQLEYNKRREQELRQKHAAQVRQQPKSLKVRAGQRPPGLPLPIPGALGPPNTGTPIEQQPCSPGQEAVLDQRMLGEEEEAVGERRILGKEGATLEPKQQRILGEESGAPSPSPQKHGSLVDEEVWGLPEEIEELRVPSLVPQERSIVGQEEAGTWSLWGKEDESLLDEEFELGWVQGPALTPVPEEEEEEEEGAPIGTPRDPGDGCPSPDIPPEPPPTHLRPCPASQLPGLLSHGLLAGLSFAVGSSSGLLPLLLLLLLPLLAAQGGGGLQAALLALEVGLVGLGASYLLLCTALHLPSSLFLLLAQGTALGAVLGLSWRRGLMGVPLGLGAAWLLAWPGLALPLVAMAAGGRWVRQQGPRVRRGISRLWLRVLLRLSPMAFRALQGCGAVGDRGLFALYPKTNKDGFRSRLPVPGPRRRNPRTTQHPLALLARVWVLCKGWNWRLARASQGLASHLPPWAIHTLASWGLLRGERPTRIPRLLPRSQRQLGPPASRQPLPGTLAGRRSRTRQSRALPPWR

With `COc1ccc(-c2ccc3c(N4CCOC[C@@H]4C)nc(N4CCOC[C@@H]4C)nc3n2)cc1CO` [AZD8055] the “apparent dissociation constant (-log10 M)” value [1] was less than 6, the “apparent dissociation constant (-log10 M)” value [2] was less than 6 and the “apparent dissociation constant (-log10 M)” value [3] was less than 6. The “apparent dissociation constant (-log10 M)” value [4] was less than 6, the “apparent dissociation constant (-log10 M)” value [5] was less than 6 and the “apparent dissociation constant (-log10 M)” value [6] was less than 6. For the same compound, the “apparent dissociation constant (-log10 M)” value [7] was less than 6, the “apparent dissociation constant (-log10 M)” value [8] was less than 6 and the “apparent dissociation constant (-log10 M)” value [9] was less than 6. For the same compound, the “apparent dissociation constant (-log10 M)” value [10] was less than 6, the “apparent dissociation constant (-log10 M)” value [11] was less than 6 and the “apparent dissociation constant (-log10 M)” value [12] was less than 6. For the same compound, the “apparent dissociation constant (-log10 M)” value [13] was less than 6, the “apparent dissociation constant (-log10 M)” value [14] was less than 6 and the “apparent dissociation constant (-log10 M)” value [15] was less than 6. For the same compound, the “apparent dissociation constant (-log10 M)” value [16] was 7.17, the “apparent dissociation constant (-log10 M)” value [17, 34] was less than 6 and the “apparent dissociation constant (-log10 M)” value [17, 35] was less than 6. For the same compound, the “apparent dissociation constant (-log10 M)” value [18] was less than 6, the “apparent dissociation constant (-log10 M)” value [19] was less than 6 and the “apparent dissociation constant (-log10 M)” value [20] was less than 6. The “apparent dissociation constant (-log10 M)” value [21] was less than 6, the “apparent dissociation constant (-log10 M)” value [22] was less than 6 and the “apparent dissociation constant (-log10 M)” value [23] was less than 6. The “apparent dissociation constant (-log10 M)” value [24] was less than 6, the “apparent dissociation constant (-log10 M)” value [25] was less than 6 and the “apparent dissociation constant (-log10 M)” value [26] was less than 6. For the same compound, the “apparent dissociation constant (-log10 M)” value [27] was less than 6, the “apparent dissociation constant (-log10 M)” value [28] was less than 6 and the “apparent dissociation constant (-log10 M)” value [29] was less than 6. For the same compound, the “apparent dissociation constant (-log10 M)” value [30] was less than 6, the “apparent dissociation constant (-log10 M)” value [31] was less than 6 and the “apparent dissociation constant (-log10 M)” value [32] was less than 6. The “apparent dissociation constant (-log10 M)” value [33] was less than 6.
With `CCNC(=O)Nc1ccc(-c2nc(N3CCOC[C@@H]3C)c3c(n2)C(C)(C)S(=O)(=O)C3)cc1` [CZ415] the “apparent dissociation constant (-log10 M)” value [1] was less than 6, the “apparent dissociation constant (-log10 M)” value [2] was less than 6 and the “apparent dissociation constant (-log10 M)” value [3] was less than 6. For the same compound, the “apparent dissociation constant (-log10 M)” value [4] was less than 6, the “apparent dissociation constant (-log10 M)” value [5] was less than 6 and the “apparent dissociation constant (-log10 M)” value [6] was less than 6. The “apparent dissociation constant (-log10 M)” value [7] was less than 6, the “apparent dissociation constant (-log10 M)” value [8] was less than 6 and the “apparent dissociation constant (-log10 M)” value [9] was less than 6. The “apparent dissociation constant (-log10 M)” value [10] was less than 6, the “apparent dissociation constant (-log10 M)” value [11] was less than 6 and the “apparent dissociation constant (-log10 M)” value [12] was less than 6. For the same compound, the “apparent dissociation constant (-log10 M)” value [13] was less than 6, the “apparent dissociation constant (-log10 M)” value [14] was less than 6 and the “apparent dissociation constant (-log10 M)” value [15] was less than 6. For the same compound, the “apparent dissociation constant (-log10 M)” value [16] was less than 6, the “apparent dissociation constant (-log10 M)” value [17, 34] was less than 6 and the “apparent dissociation constant (-log10 M)” value [17, 35] was less than 6. The “apparent dissociation constant (-log10 M)” value [18] was less than 6, the “apparent dissociation constant (-log10 M)” value [19] was less than 6 and the “apparent dissociation constant (-log10 M)” value [20] was less than 6. For the same compound, the “apparent dissociation constant (-log10 M)” value [21] was less than 6, the “apparent dissociation constant (-log10 M)” value [22] was less than 6 and the “apparent dissociation constant (-log10 M)” value [23] was less than 6. For the same compound, the “apparent dissociation constant (-log10 M)” value [24] was less than 6, the “apparent dissociation constant (-log10 M)” value [25] was less than 6 and the “apparent dissociation constant (-log10 M)” value [26] was less than 6. The “apparent dissociation constant (-log10 M)” value [27] was less than 6, the “apparent dissociation constant (-log10 M)” value [28] was less than 6 and the “apparent dissociation constant (-log10 M)” value [29] was less than 6. For the same compound, the “apparent dissociation constant (-log10 M)” value [30] was less than 6, the “apparent dissociation constant (-log10 M)” value [31] was less than 6 and the “apparent dissociation constant (-log10 M)” value [32] was less than 6. For the same compound, the “apparent dissociation constant (-log10 M)” value [33] was less than 6.
